In the NIST ThermoML archive (doi:10.1021/je800883b):

Columns and labels:
[1] = 101 kPa, Liquid, Pycnometric method
[2] = xn = mol fraction of the nth substance listed; conditions: 101 kPa, Liquid, Pycnometric method

c1ccccc1 [benzene]
[1]
Conditions	mass density [kg/m3]
303.15 K	868.1
313.15 K	857.4
323.15 K	846.6

c1ccccc1 [benzene] + CCC(C)=O
[2], x2 = 0
Conditions	mass density [kg/m3]
303.15 K	868.1
313.15 K	857.4
323.15 K	846.6

CCC(C)=O [butanone]
[1]
Conditions	mass density [kg/m3]
303.15 K	794.6
313.15 K	784
323.15 K	773.3

CCC(C)=O [butanone] + C1CCCCC1
mass density [kg/m3], [2]
Conditions	x1 = 0.1066	x1 = 0.2093	x1 = 0.3084	x1 = 0.4042	x1 = 0.5064	x1 = 0.6055	x1 = 0.7007	x1 = 0.8015	x1 = 0.907	x1 = 1
303.15 K	768	768.3	769.5	771.3	773.6	776.2	779.8	784	789.6	794.6
313.15 K	758.3	757.4	758.2	759.9	762.4	765.1	769.2	772.7	777.8	784
323.15 K	747.4	746.5	747.3	749.2	751.3	754.4	757.8	761.7	767.2	773.3

CCC(C)=O [butanone] + CCCCCC
mass density [kg/m3], [2]
Conditions	x1 = 0.1057	x1 = 0.2048	x1 = 0.3035	x1 = 0.4071	x1 = 0.5035	x1 = 0.6029	x1 = 0.7042	x1 = 0.8059	x1 = 0.9033	x1 = 1
303.15 K	660	670	680.6	692.9	706	720.7	736.8	754.9	774	794.6
313.15 K	650.4	659	669.5	682	694.7	709.2	725.3	742.9	763	784
323.15 K	639.6	648	658.5	670.4	683.8	698.2	714.2	732.2	752.3	773.3

CCC(C)=O [butanone] + c1ccccc1
mass density [kg/m3], [2]
Conditions	x1 = 0.101	x1 = 0.1999	x1 = 0.2988	x1 = 0.3969	x1 = 0.4996	x1 = 0.5988	x1 = 0.6993	x1 = 0.7931	x1 = 0.8961	x1 = 1
303.15 K	861.2	854.2	847.1	839.9	832.7	825.2	817.5	809.9	802.2	794.6
313.15 K	850.6	843.5	836.6	829.3	822.1	814.6	806.9	799.4	791.7	784
323.15 K	839.9	832.9	825.9	818.7	811.5	803.9	796.4	788.9	781.1	773.3

C1CCCCC1 [cyclohexane]
[1]
Conditions	mass density [kg/m3]
303.15 K	768.9
313.15 K	759.2
323.15 K	748.7

C1CCCCC1 [cyclohexane] + CCC(C)=O
[2], x2 = 0
Conditions	mass density [kg/m3]
303.15 K	768.9
313.15 K	759.2
323.15 K	748.7

CCCCCC [hexane]
[1]
Conditions	mass density [kg/m3]
303.15 K	650.9
313.15 K	641.7
323.15 K	630.9

CCCCCC [hexane] + CCC(C)=O
[2], x2 = 0
Conditions	mass density [kg/m3]
303.15 K	650.9
313.15 K	641.7
323.15 K	630.9
